Test results taken from patent US20150315218A1, “SALTS OF PRODRUGS OF PIPERAZINE AND SUBSTITUTED PIPERIDINE ANTIVIRAL AGENTS” (Bristol-Myers Squibb Company, priority 2004, published 2015).
Where a name gives a salt, the structure may show the parent alone.

Legend:
[1] = Stability of prodrug in fresh EDTA blood (monkey); details: for Ibb: Ibb in fresh monkey EDTA blood, 37° C., n = 2
Protocol: (§2) The stability of Iab was studied in fresh blood and serum from rat, dog, monkey and human (n=2). The blood was collected in vacutainers containing K2EDTA (Becton Dickinson, Franklin Lakes, N.J.). The serum was collected in vacutainers containing no anticoagulant. Iab was incubated at a starting concentration of approximately 10 μM for 60-90 min at 37° C. Serial samples were taken at the pre-determined times. Aliquots of blood samples (200 μL) were first mixed with 100 μL of water followed by 400 μL of acetonitrile. The serum samples (50 μL) were added into microtainers containing K2EDTA (Becton Dickinson, Franklin Lakes, N.J.) followed by the addition of 100 μL of acetonitrile. The supernatant was analyzed for both Iab and IVa by LC/MS/MS. The stability of Ibb was studied in fresh blood and serum from rat, dog, monkey and human (n=2). The blood was collected in vacutainers containing K2EDTA (Becton Dickinson, Franklin Lakes, N.J.). The serum was collected in vacutainers containing no anticoagulant. Ibb was incubated at a starting concentration of approximately 15 μM for 90 min at 37° C. Serial samples were taken at the pre-determined times. Aliquots of blood samples (200 μL) were first mixed with 100 μL of water followed by 400 μL of acetonitrile. The serum samples (50 μL) were added into microtainers containing K2EDTA (Becton Dickinson, Franklin Lakes, N.J.) followed by the addition of 100 μL of acetonitrile. […] The stability of Icb was studied in fresh blood and serum from rat, dog, monkey and human (n=2). The blood was collected in vacutainers containing K2EDTA (Becton Dickinson, Franklin Lakes, N.J.). The serum was collected in vacutainers containing no anticoagulant. Icb was incubated at a starting concentration of approximately 10 μM for 90 min at 37° C. Serial samples were taken at the pre-determined times. Aliquots of blood samples (200 μL) were first mixed with 100 μL of water followed by 400 μL of acetonitrile. The serum samples (50 μL) were added into microtainers containing K2EDTA (Becton Dickinson, Franklin Lakes, N.J.) followed by the addition of 100 μL of acetonitrile.

physchem = details: aqueous solution (pH range 1.5 to 8.7), aqueous buffer, thermodynamic from solid
[2] = Stability of prodrug in Tris-HCl buffer; details: for Ibb: Ibb in Tris-HCl buffer, 37° C., n = 2
Protocol: The stability of Iab was also evaluated, as described above, in Tris-HCl buffer (0.1 M, pH 7.5). The stability of Ibb was also evaluated, as described above, in Tris-HCl buffer (0.1 M, pH 7.5). The stability of Icb was also evaluated, as described above, in Tris-HCl buffer (0.1 M, pH 7.5).

[3] = Stability of prodrug in fresh EDTA blood (human); details: for Ibb: Ibb in fresh human EDTA blood, 37° C., n = 2
Protocol: as §2

[4] = Stability (hydrolysis) of prodrug in fresh serum (monkey); details: Ibb in fresh monkey serum, 37° C., n = 2
Protocol: as §2

rat hepatocytes = test: Hydrolysis of prodrug in hepatocytes (rat); format: in vitro ADME; details: rat hepatocytes, qualitative
Protocol: (§1) The in vitro intrinsic clearance of Ibb in hepatocytes (Clint) was calculated as follows: Clint(μL/min/million cells)=Rate/CE where Rate is the rate of metabolism in hepatocytes (pmol/min/million cells), and CE is the concentration of Ibb in the incubation. The in vitro intrinsic clearance of Icb in hepatocytes (Clint) was calculated as follows: Clint(μL/min/million cells)=Rate/CE where Rate is the rate of metabolism in hepatocytes (pmol/min/million cells), and CE is the concentration of Icb in the incubation.

[5] = Stability of prodrug in fresh EDTA blood (rat); details: for Ibb: Ibb in fresh rat EDTA blood, 37° C., n = 2
Protocol: as §2

in vitro [6] = details: dog, serum
Protocol: as §2

[7] = Stability (hydrolysis) of prodrug in fresh serum (dog); details: Ibb in fresh dog serum, 37° C., n = 2
Protocol: as §2

in vitro [8] = details: rat, serum
dog hepatocytes = test: Hydrolysis of prodrug in hepatocytes (dog); format: in vitro ADME; details: dog hepatocytes, qualitative
Protocol: as §1

[9] = Stability (hydrolysis) of prodrug in fresh serum (human); details: Ibb in fresh human serum, 37° C., n = 2
in vitro [10] = details: monkey, serum
Protocol: as §2

## O=C(C(=O)N1CCN(C(=O)c2ccccc2)CC1)c1cn(COP(=O)(O)O)c2c(-n3ccnn3)ncc(F)c12 [Ibb, [3-[(4-benzoylpiperazin-1-yl)(oxo)acetyl]-4-fluoro-7-(1H-1,2,3-triazol-1-yl)-1H-pyrrolo[2,3-c]pyridin-1-yl]methyl dihydrogen phosphate, L-lysine salt (1:1)]
[1]; 0 min
  Ibb: 16 µM
[1]; 15 min
  Ibb: 19 µM
[1]; 30 min
  Ibb: 18 µM
[1]; 45 min
  Ibb: 18 µM
[1]; 60 min
  Ibb: 19 µM
[1]; 90 min
  Ibb: 17 µM
[1]; monkey blood, 37°C, 60 min (Iab) or 90 min (Ibb, Icb)
  conversion of prodrug to parent in blood containing EDTA: < 2%
physchem
  solubility: > 11 mg/mL
[2]; 37°C, 60 min (Iab) or 90 min (Ibb, Icb)
  stability / conversion of prodrug to parent in Tris-HCl buffer: less than 2%
[2]; 0 min
  Ibb: 14 µM
[2]; 15 min
  Ibb: 12 µM
[2]; 30 min
  Ibb: 13 µM
[2]; 45 min
  Ibb: 12 µM
[2]; 60 min
  Ibb: 13 µM
[2]; 90 min
  Ibb: 12 µM
[3]; 0 min
  Ibb: 16 µM
[3]; 15 min
  Ibb: 15 µM
[3]; 30 min
  Ibb: 16 µM
[3]; 45 min
  Ibb: 16 µM
[3]; 60 min
  Ibb: 16 µM
[3]; 90 min
  Ibb: 18 µM
[3]; human blood, 37°C, 60 min (Iab) or 90 min (Ibb, Icb)
  conversion of prodrug to parent in blood containing EDTA: < 2%
[4]; 0 min
  Ibb: 14 µM
[4]; 15 min
  Ibb: 6.6 µM
[4]; 30 min
  Ibb: 3.1 µM
[4]; 45 min
  Ibb: 1.7 µM
[4]; 60 min
  Ibb: 0.85 µM
[4]; 90 min
  Ibb: 0.22 µM
Rat hepatocytes
  hydrolysis in the presence of hepatocytes: hydrolyzed
[5]; 0 min
  Ibb: 15 µM
[5]; 15 min
  Ibb: 15 µM
[5]; 30 min
  Ibb: 18 µM
[5]; 45 min
  Ibb: 15 µM
[5]; 60 min
  Ibb: 16 µM
[5]; 90 min
  Ibb: 17 µM
[5]; rat blood, 37°C, 60 min (Iab) or 90 min (Ibb, Icb)
  conversion of prodrug to parent in blood containing EDTA: < 2%
In vitro [6]
  half-life at 15 μM: 2.78 h
[7]; 0 min
  Ibb: 13 µM
[7]; 15 min
  Ibb: 12 µM
[7]; 30 min
  Ibb: 11 µM
[7]; 45 min
  Ibb: 10 µM
[7]; 60 min
  Ibb: 10 µM
[7]; 90 min
  Ibb: 8.9 µM
In vitro [8]
  half-life at 15 μM: 11.7 h
Dog hepatocytes
  hydrolysis in the presence of hepatocytes: hydrolyzed
[9]; 0 min
  Ibb: 13 µM
[9]; 15 min
  Ibb: 9.0 µM
[9]; 30 min
  Ibb: 10 µM
[9]; 45 min
  Ibb: 10 µM
[9]; 60 min
  Ibb: 8.0 µM
[9]; 90 min
  Ibb: 6.5 µM
In vitro [10]
  half-life at 15 μM: 0.25 h
